The NIST ThermoML archive (doi:10.1016/j.jct.2017.03.006)
± gives the expanded uncertainty stated by the source.

Assay: xn = mol fraction of the nth substance listed
Conditions: Liquid; for mass density: 313.15 K, Vibrating tube method; for viscosity: 323.15 K, 100 kPa, Concentric cylinders viscometry

Cc1ccc(C)c(C)c1 [1,2,4-trimethylbenzene] + CCC(C)O
mass density (50000 kPa, x2 = 0.5997): 855 ± 0.8 kg/m3 | mass density (50000 kPa, x2 = 0.6999): 848.2 ± 0.8 kg/m3 | mass density (50000 kPa, x2 = 0.7999): 841.1 ± 0.8 kg/m3 | mass density (50000 kPa, x2 = 0.9): 833.3 ± 0.8 kg/m3 | mass density (60000 kPa, x2 = 0): 895 ± 0.8 kg/m3 | mass density (60000 kPa, x2 = 0.1): 890.1 ± 0.8 kg/m3 | mass density (60000 kPa, x2 = 0.1989): 884.6 ± 0.8 kg/m3 | mass density (60000 kPa, x2 = 0.3011): 878.8 ± 0.8 kg/m3 | mass density (60000 kPa, x2 = 0.4002): 873.1 ± 0.8 kg/m3 | mass density (60000 kPa, x2 = 0.5001): 867.1 ± 0.8 kg/m3 | mass density (60000 kPa, x2 = 0.5997): 860.6 ± 0.8 kg/m3 | mass density (60000 kPa, x2 = 0.6999): 853.8 ± 0.8 kg/m3 | mass density (60000 kPa, x2 = 0.7999): 846.7 ± 0.8 kg/m3 | mass density (60000 kPa, x2 = 0.9): 839 ± 0.8 kg/m3 | mass density (70000 kPa, x2 = 0): 899.9 ± 0.8 kg/m3 | mass density (70000 kPa, x2 = 0.1): 895.3 ± 0.8 kg/m3 | mass density (70000 kPa, x2 = 0.1989): 889.7 ± 0.8 kg/m3 | mass density (70000 kPa, x2 = 0.3011): 884.1 ± 0.8 kg/m3 | mass density (70000 kPa, x2 = 0.4002): 878.3 ± 0.8 kg/m3 | mass density (70000 kPa, x2 = 0.5001): 872.4 ± 0.8 kg/m3 | mass density (70000 kPa, x2 = 0.5997): 865.9 ± 0.8 kg/m3 | mass density (70000 kPa, x2 = 0.6999): 859.1 ± 0.8 kg/m3 | mass density (70000 kPa, x2 = 0.7999): 852.1 ± 0.8 kg/m3 | mass density (70000 kPa, x2 = 0.9): 844.4 ± 0.9 kg/m3 | mass density (80000 kPa, x2 = 0): 904.6 ± 0.8 kg/m3 | mass density (80000 kPa, x2 = 0.1): 900.1 ± 0.8 kg/m3 | mass density (80000 kPa, x2 = 0.1989): 894.7 ± 0.8 kg/m3 | mass density (80000 kPa, x2 = 0.3011): 889 ± 0.8 kg/m3 | mass density (80000 kPa, x2 = 0.4002): 883.3 ± 0.8 kg/m3 | mass density (80000 kPa, x2 = 0.5001): 877.5 ± 0.8 kg/m3 | mass density (80000 kPa, x2 = 0.5997): 871 ± 0.8 kg/m3 | mass density (80000 kPa, x2 = 0.6999): 864.2 ± 0.8 kg/m3 | mass density (80000 kPa, x2 = 0.7999): 857.2 ± 0.9 kg/m3 | mass density (80000 kPa, x2 = 0.9): 849.5 ± 0.9 kg/m3 | mass density (90000 kPa, x2 = 0): 909 ± 0.8 kg/m3 | mass density (90000 kPa, x2 = 0.1): 904.7 ± 0.8 kg/m3 | mass density (90000 kPa, x2 = 0.1989): 899.4 ± 0.8 kg/m3 | mass density (90000 kPa, x2 = 0.3011): 893.6 ± 0.8 kg/m3 | mass density (90000 kPa, x2 = 0.4002): 888.1 ± 0.8 kg/m3 | mass density (90000 kPa, x2 = 0.5001): 882.2 ± 0.8 kg/m3 | mass density (90000 kPa, x2 = 0.5997): 875.7 ± 0.9 kg/m3 | mass density (90000 kPa, x2 = 0.6999): 869 ± 0.9 kg/m3 | mass density (90000 kPa, x2 = 0.7999): 861.9 ± 0.9 kg/m3 | mass density (90000 kPa, x2 = 0.9): 854.3 ± 0.9 kg/m3 | mass density (100000 kPa, x2 = 0): 913.3 ± 0.8 kg/m3 | mass density (100000 kPa, x2 = 0.1): 909.2 ± 0.8 kg/m3 | mass density (100000 kPa, x2 = 0.1989): 903.8 ± 0.8 kg/m3 | mass density (100000 kPa, x2 = 0.3011): 898.1 ± 0.8 kg/m3 | mass density (100000 kPa, x2 = 0.4002): 892.5 ± 0.8 kg/m3 | mass density (100000 kPa, x2 = 0.5001): 886.8 ± 0.9 kg/m3 | mass density (100000 kPa, x2 = 0.5997): 880.3 ± 0.9 kg/m3 | mass density (100000 kPa, x2 = 0.6999): 873.6 ± 0.9 kg/m3 | mass density (100000 kPa, x2 = 0.7999): 866.6 ± 0.9 kg/m3 | mass density (100000 kPa, x2 = 0.9): 859 ± 0.9 kg/m3 | mass density (110000 kPa, x2 = 0): 917.4 ± 0.8 kg/m3 | mass density (110000 kPa, x2 = 0.1): 913.5 ± 0.8 kg/m3 | mass density (110000 kPa, x2 = 0.1989): 908.1 ± 0.8 kg/m3 | mass density (110000 kPa, x2 = 0.3011): 902.5 ± 0.8 kg/m3 | mass density (110000 kPa, x2 = 0.4002): 897 ± 0.9 kg/m3 | mass density (110000 kPa, x2 = 0.5001): 891.3 ± 0.9 kg/m3 | mass density (110000 kPa, x2 = 0.5997): 884.8 ± 0.9 kg/m3 | mass density (110000 kPa, x2 = 0.6999): 878.1 ± 0.9 kg/m3 | mass density (110000 kPa, x2 = 0.7999): 871.1 ± 0.9 kg/m3 | mass density (110000 kPa, x2 = 0.9): 863.5 ± 0.9 kg/m3 | mass density (120000 kPa, x2 = 0): 921.4 ± 0.8 kg/m3 | mass density (120000 kPa, x2 = 0.1): 917.6 ± 0.8 kg/m3 | mass density (120000 kPa, x2 = 0.1989): 912.3 ± 0.8 kg/m3 | mass density (120000 kPa, x2 = 0.3011): 906.7 ± 0.8 kg/m3 | mass density (120000 kPa, x2 = 0.4002): 901.1 ± 0.9 kg/m3 | mass density (120000 kPa, x2 = 0.5001): 895.5 ± 0.9 kg/m3 | mass density (120000 kPa, x2 = 0.5997): 889.1 ± 0.9 kg/m3 | mass density (120000 kPa, x2 = 0.6999): 882.4 ± 0.9 kg/m3 | mass density (120000 kPa, x2 = 0.7999): 875.3 ± 0.9 kg/m3 | mass density (120000 kPa, x2 = 0.9): 867.7 ± 1 kg/m3 | mass density (130000 kPa, x2 = 0): 925.2 ± 0.8 kg/m3 | mass density (130000 kPa, x2 = 0.1): 921.5 ± 0.8 kg/m3 | mass density (130000 kPa, x2 = 0.1989): 916.3 ± 0.8 kg/m3 | mass density (130000 kPa, x2 = 0.3011): 910.7 ± 0.9 kg/m3 | mass density (130000 kPa, x2 = 0.4002): 905.2 ± 0.9 kg/m3 | mass density (130000 kPa, x2 = 0.5001): 899.6 ± 0.9 kg/m3 | mass density (130000 kPa, x2 = 0.5997): 893.2 ± 0.9 kg/m3 | mass density (130000 kPa, x2 = 0.6999): 886.6 ± 0.9 kg/m3 | mass density (130000 kPa, x2 = 0.7999): 879.5 ± 0.9 kg/m3 | mass density (130000 kPa, x2 = 0.9): 871.9 ± 1 kg/m3 | mass density (140000 kPa, x2 = 0): 928.9 ± 0.8 kg/m3 | mass density (140000 kPa, x2 = 0.1): 925.4 ± 0.8 kg/m3 | mass density (140000 kPa, x2 = 0.1989): 920.2 ± 0.8 kg/m3 | mass density (140000 kPa, x2 = 0.3011): 914.4 ± 0.9 kg/m3 | mass density (140000 kPa, x2 = 0.4002): 908.9 ± 0.9 kg/m3 | mass density (140000 kPa, x2 = 0.5001): 903.7 ± 0.9 kg/m3 | mass density (140000 kPa, x2 = 0.5997): 897.3 ± 0.9 kg/m3 | mass density (140000 kPa, x2 = 0.6999): 890.2 ± 0.9 kg/m3 | mass density (140000 kPa, x2 = 0.7999): 883.2 ± 1 kg/m3 | mass density (140000 kPa, x2 = 0.9): 875.6 ± 1 kg/m3 | viscosity (x2 = 0): 0.62 ± 0.014 mPa·s | viscosity (x2 = 0.1001): 0.62 ± 0.014 mPa·s | viscosity (x2 = 0.2261): 0.614 ± 0.013 mPa·s | viscosity (x2 = 0.3): 0.616 ± 0.013 mPa·s | viscosity (x2 = 0.3966): 0.646 ± 0.014 mPa·s | viscosity (x2 = 0.5298): 0.658 ± 0.014 mPa·s | viscosity (x2 = 0.6001): 0.71 ± 0.015 mPa·s
